These results are taken from ChEMBL document CHEMBL3779773, “A unique macrolactam derivative via a [4+6]-cycloaddition from Streptomyces niveus” (Bioorg Med Chem Lett, 2016).

One may read the IC50 as the midpoint of a concentration-inhibition curve. By MIC is commonly meant the smallest concentration in the dilution series that meets the test's criterion for growth inhibition. A high value points to a less susceptible organism. For orientation: LD50 means the dose at which mortality reaches 50%. Low values mean a more toxic substance, high ones a less toxic substance.

Converted amounts (≈) assume the structure as drawn. The source made the active and inactive calls.

Data set [1] has as its system HepG2. Description: Cytotoxicity against human HepG2 cells assessed as growth inhibition after 72 hrs by MTT assay. The class given is functional, cell-based. Particulars: HepG2, 72 h.
Data set [2] deals with BGC832. Description: Cytotoxicity against human […] cells assessed as cell viability after 24 to 72 hrs by MTT assay. The class given is functional, cell-based.
Data set [3] relates to NCI-H460. Description: Cytotoxicity against human H460 cells assessed as cell viability at 1.2 to 100 uM by MTT assay. The class given is functional, cell-based. Particulars: TDE = time-dependent effect. On the technique in general: Formazan colour is commonly taken as a measure of viable cells.
Another data set has as its system Bacillus subtilis. Nature of the data set: Antimicrobial activity against Bacillus subtilis after 24 hrs using MTT reagent by micro dilution method. The class given is functional.
The test system of data set [4] is HepG2. Nature of the data set: Cytotoxicity against human HepG2 cells assessed as cell viability after 24 to 72 hrs by MTT assay. The class given is functional, cell-based.
Data set [5] can be described thus: Cytotoxicity against human HELF cells assessed as growth inhibition after 72 hrs by MTT assay. The class given is cell-based.
A short description of data set [6]: Cytotoxicity against human […] cells assessed as growth inhibition after 72 hrs by MTT assay. The data set is classed as functional, cell-based.
A short description of data set [7]: Cytotoxicity against human Caco2 cells assessed as growth inhibition after 72 hrs by MTT assay. The following applies: Caco-2, 72 h. The class given is functional, cell-based.
In data set [8] the test system is HCT-116. Description: Cytotoxicity against human HCT116 cells assessed as cell viability at 1.2 to 100 uM by MTT assay. The class given is functional, cell-based. Particulars: TDE = time-dependent effect.
The test system of data set [9] is Caco-2. Description: Cytotoxicity against human Caco2 cells assessed as cell viability at 1.2 to 100 uM by MTT assay. Particulars: TDE = time-dependent effect. The class given is functional, cell-based.
Another data set concerns Aspergillus niger. Nature of the data set: Antimicrobial activity against Aspergillus niger by micro dilution method. The data set is classed as functional, organism-based.
Another data set relates to Staphylococcus aureus. Description: Antimicrobial activity against Staphylococcus aureus after 24 hrs using MTT reagent by micro dilution method. The class given is functional, organism-based.
In data set [10] the test system is HepG2. Nature of the data set: Cytotoxicity against human HepG2 cells assessed as cell viability at 1.2 to 100 uM by MTT assay. The class given is functional, cell-based. Particulars: TDE = time-dependent effect.
Data set [11] can be described thus: Cytotoxicity against human HCT116 cells assessed as growth inhibition after 72 hrs by MTT assay. The class given is functional, cell-based. Particulars: HCT-116, 72 h.
In data set [12] the test system is Caco-2. Nature of the data set: Cytotoxicity against human Caco2 cells assessed as cell viability after 24 to 72 hrs by MTT assay. The data set is classed as functional, cell-based.
Data set [13] deals with BGC832. Nature of the data set: Cytotoxicity against human […] cells assessed as cell viability at 1.2 to 100 uM by MTT assay. The data set is classed as functional, cell-based. The following applies: TDE = time-dependent effect.
Data set [14] is described as follows: Cytotoxicity against human H460 cells assessed as growth inhibition after 72 hrs by MTT assay. The class given is functional, cell-based. Particulars: NCI-H460, 72 h.
Data set [15] deals with HCT-116. Nature of the data set: Cytotoxicity against human HCT116 cells assessed as cell viability after 24 to 72 hrs by MTT assay. The class given is functional, cell-based.
Data set [16] relates to NCI-H460. Nature of the data set: Cytotoxicity against human H460 cells assessed as cell viability after 24 to 72 hrs by MTT assay. The data set is classed as functional, cell-based.
For a further data set, the system named is Candida albicans. Nature of the data set: Antimicrobial activity against Candida albicans by micro dilution method. The data set is classed as functional, organism-based.
Another data set relates to Escherichia coli. Description: Antimicrobial activity against Escherichia coli after 24 hrs using MTT reagent by micro dilution method. The class given is functional, organism-based.
Data set [17] can be described thus: Acute toxicity in ip dosed mouse. The data set is classed as organism-based. The following applies: in vivo.

Consider `CCC/C=C/CC1CC(O)[C@@H](O)[C@@H]2/C(C)=C/[C@H]3C=C[C@H]4O[C@H]4[C@@H]3/C(C)=C/C=C\[C@@H]2C(=O)N1` (some centres not stated), for which the IC50 in the data set on HepG2 [1] is 15 µM; in data set [5], 46.5 µM; in data set [6] it was 13.1 µM; in data set [7], 15 µM; in data set [11] (read-out: IC50), 8.03 µM; in data set [14] it was 3.76 µM. Besides, the Activity result in the data set with BGC832 [2] is “Dose-dependent effect”; in the data set on NCI-H460 [3] it was “tde”; in the data set with HepG2 [4], “Dose-dependent effect”; in the data set on HCT-116 [8], “tde”; in the data set with Caco-2 [9], “tde”; with HepG2 [10], “tde”. The Activity result with Caco-2 [12] was “Dose-dependent effect”; in the data set with BGC832 [13], “tde”; with HCT-116 [15], “Dose-dependent effect”; with NCI-H460 [16], “Dose-dependent effect”. In addition, the MIC in the data set on Bacillus subtilis was 43.9 µg/mL (≈ 99.9 µM). Besides, the result in the data set on Aspergillus niger, with Staphylococcus aureus, in the data set with Candida albicans and in the data set on Escherichia coli was inactive.
For the compound `COc1cccc2c1C(=O)c1c(O)c3c(c(O)c1C2=O)C[C@@](O)(C(=O)CO)C[C@@H]3O[C@H]1C[C@H](N)[C@H](O)[C@H](C)O1` [DOXORUBICIN], the 50% inhibitory concentration (IC50) came out at 7.31 µM in data set [5]; 1.48 µM in data set [6]; 0.96 µM in [7]; 0.74 µM in [11]; 0.98 µM in data set [14].
Turning to `CCCCCCC1CC(=O)CCCC(O)CC(=O)C2=C(O)C(OC3CC(OC)C(O)C(C)O3)CC2\C=C(C)/C=C/C=C/C(=O)N1` (configuration not stated), the LD50 in [17] was over 100 mg/kg.
